Values joined by “and” are separate entries in the source; they are usually repeats but may differ in a detail not shown here. Equal values may be shown once. Inconclusive results and toxic doses are left out. Peptide text beside a SMILES is read from it. * marks the point of attachment. CH2Cl = ClC*
Test system: BDF1 mice, B16 melanoma ip, median survival T/C
Test: NCI In Vivo Anticancer Drug Screen. Data for tumor model B16 Melanoma (intraperitoneal) in B6D2F1 (BDF1) mice
Settings: endpoint: median survival time, higher = longer survival
Procedure, shortened: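 The ratio T/C compares compound-treated mice with vehicle-treated controls, using survival or tumor size as the endpoint in a transplantable tumor model.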

[1] = dose: 100.0 mg/kg/injection, schedule: Q01DX009 (ip), vehicle: saline with Tween-80
[2] = dose: 200.0 mg/kg/injection, schedule: Q01DX009 (ip), vehicle: saline with Tween-80
[3] = dose: 25.0 mg/kg/injection, schedule: Q01DX009 (ip), vehicle: saline with Tween-80
[4] = dose: 50.0 mg/kg/injection, schedule: Q01DX009 (ip), vehicle: saline with Tween-80
[5] = dose: 25.0 mg/kg/injection, schedule: Q01DX009 (ip), vehicle: saline
[6] = dose: 50.0 mg/kg/injection, schedule: Q01DX009 (ip), vehicle: saline
[7] = dose: 100.0 mg/kg/injection, schedule: Q01DX009 (ip), vehicle: Klucel (hydroxypropylcellulose) (HPC)
[8] = dose: 200.0 mg/kg/injection, schedule: Q01DX009 (ip), vehicle: Klucel (hydroxypropylcellulose) (HPC)
[9] = dose: 400.0 mg/kg/injection, schedule: Q01DX009 (ip), vehicle: Klucel (hydroxypropylcellulose) (HPC)
[10] = dose: 100.0 mg/kg/injection, schedule: Q01DX009 (ip), vehicle: saline
[11] = dose: 200.0 mg/kg/injection, schedule: Q01DX009 (ip), vehicle: saline
[12] = dose: 3.12 mg/kg/injection, schedule: Q01DX009 (ip), vehicle: Klucel (hydroxypropylcellulose) (HPC)
[13] = dose: 6.25 mg/kg/injection, schedule: Q01DX009 (ip), vehicle: Klucel (hydroxypropylcellulose) (HPC)
[14] = dose: 25.0 mg/kg/injection, schedule: Q01DX009 (ip), vehicle: Klucel (hydroxypropylcellulose) (HPC)
[15] = dose: 50.0 mg/kg/injection, schedule: Q01DX009 (ip), vehicle: Klucel (hydroxypropylcellulose) (HPC)
[16] = dose: 0.75 mg/kg/injection, schedule: Q01DX009 (ip), vehicle: saline

Structure (SMILES): CN1C2C=C(c3ccccc3)C(Br)C1CC2 (stereo not drawn)
- T/C (dose: 20.0 mg/kg/injection, schedule: Q01DX009 (ip), vehicle: saline with Tween-80): 98 % of control
- T/C (dose: 20.0 mg/kg/injection, schedule: Q04DX003 (ip), vehicle: saline with Tween-80): 100 % of control
- T/C (dose: 40.0 mg/kg/injection, schedule: Q01DX009 (ip), vehicle: saline with Tween-80): 91 % of control
- T/C (dose: 40.0 mg/kg/injection, schedule: Q04DX003 (ip), vehicle: saline with Tween-80): 104 % of control
- T/C (dose: 80.0 mg/kg/injection, schedule: Q04DX003 (ip), vehicle: saline with Tween-80): 88 % of control

Structure (SMILES): O=C(/C=C/C(=O)OCC(Cl)(Cl)Cl)OCC(Cl)(Cl)Cl
- T/C [1]: 96 % of control
- T/C [2]: 92 % of control

Structure (SMILES): CCC[CH2][Sn]1([CH2]CCC)[O]OC(c2ccc(OC)cc2)[O]1 (stereo not drawn)
- T/C (dose: 3.12 mg/kg/injection, schedule: Q01DX009 (sc), vehicle: olive oil, sesame oil, peanut oil): 93 % of control

Structure (SMILES): COc1cc2cc(c1Cl)N(C)C(=O)CC(OC(=O)C(C)C)C1(C)OC1C(C)C1CC(O)(NC(=O)O1)C(OC)/C=C/C=C(C)C2 (stereo not drawn)
- T/C (dose: 3.1 micrograms/kg/injection, schedule: Q01DX009 (ip), vehicle: saline + alcohol): 124 % of control
- T/C (dose: 6.25 micrograms/kg/injection, schedule: Q01DX009 (ip), vehicle: saline + alcohol): 169 % of control
- T/C (dose: 7.0 micrograms/kg/injection, schedule: Q01DX009 (ip), vehicle: saline + alcohol): 150 % of control
- T/C (dose: 12.5 micrograms/kg/injection, schedule: Q01DX009 (ip), vehicle: saline + alcohol): 152 % of control and 168 % of control
- T/C (dose: 15.0 micrograms/kg/injection, schedule: Q01DX009 (ip), vehicle: saline + alcohol): 165 % of control
- T/C (dose: 25.0 micrograms/kg/injection, schedule: Q01DX009 (ip), vehicle: saline + alcohol): 157 % of control and 160 % of control and 165 % of control
- T/C (dose: 30.0 micrograms/kg/injection, schedule: Q01DX009 (ip), vehicle: saline + alcohol): 178 % of control
- T/C (dose: 50.0 micrograms/kg/injection, schedule: Q01DX009 (ip), vehicle: saline + alcohol): 164 % of control and 176 % of control
- T/C (dose: 60.0 micrograms/kg/injection, schedule: Q01DX009 (ip), vehicle: saline + alcohol): 182 % of control

Structure (SMILES): Cc1ccc(C(C)(N=[N+]=[N-])c2ccccc2)cc1C (stereo not drawn)
- T/C [3]: 94 % of control
- T/C [4]: 93 % of control
- T/C [1]: 90 % of control
- T/C [2]: 90 % of control

Structure (SMILES): COc1ccc2c(=O)cc(-c3ccccc3)[nH]c2c1
- T/C (dose: 12.5 mg/kg/injection, schedule: Q01DX009 (ip), vehicle: saline): 114 % of control
- T/C [5]: 117 % of control
- T/C [6]: 120 % of control

Structure (SMILES): CC(OC(C)c1ccccc1)c1ccccc1 (stereo not drawn)
- T/C [7]: 113 % of control
- T/C [8]: 106 % of control
- T/C [9]: 103 % of control

Structure (SMILES): C/C=C(/C)C(=O)O[C@H]1CC[N+]2([O-])CC=C(COC(=O)[C@@](O)([C@H](C)OC)C(C)(C)O)[C@H]12 (stereo partly drawn)
- T/C [5]: 95 % of control
- T/C [6]: 97 % of control
- T/C [10]: 107 % of control
- T/C [11]: 100 % of control

Structure (SMILES): CC(=O)NC(CC(C)C)C(=O)NC(Cc1ccccc1)C(=O)CCl (stereo not drawn) (Ac-Leu-Phe-CH2Cl; configuration not given here)
- T/C (dose: 1.56 mg/kg/injection, schedule: Q01DX009 (ip), vehicle: Klucel (hydroxypropylcellulose) (HPC)): 100 % of control
- T/C [12]: 100 % of control
- T/C [13]: 96 % of control and 97 % of control

Structure (SMILES): O=C(Nc1ccccc1C(F)(F)F)Nc1cccc2ccccc12
- T/C [7]: 91 % of control
- T/C [8]: 94 % of control

Structure (SMILES): COc1ccc(C(N)=O)cc1N=NN(C)C
- T/C [12]: 111 % of control and 113 % of control
- T/C [13]: 109 % of control and 110 % of control
- T/C (dose: 12.5 mg/kg/injection, schedule: Q01DX009 (ip), vehicle: Klucel (hydroxypropylcellulose) (HPC)): 110 % of control and 111 % of control
- T/C [14]: 115 % of control and 123 % of control
- T/C [15]: 117 % of control

Structure (SMILES): O=C1NC2(CCCCC2)C(=O)N1CCN(CCCl)CCCl
- T/C [16]: 105 % of control and 107 % of control
- T/C (dose: 0.78 mg/kg/injection, schedule: Q01DX009 (ip), vehicle: saline): 95 % of control and 109 % of control and 263 % of control
- T/C (dose: 3.0 mg/kg/injection, schedule: Q01DX009 (ip), vehicle: saline): 107 % of control
- T/C (dose: 6.0 mg/kg/injection, schedule: Q01DX009 (ip), vehicle: saline with Tween-80): 168 % of control and 191 % of control
- T/C (dose: 6.25 mg/kg/injection, schedule: Q01DX009 (ip), vehicle: saline): 152 % of control and 176 % of control

Structure (SMILES): CCC(C#N)=C1CCCCC1
- T/C [3]: 102 % of control
- T/C [4]: 106 % of control
- T/C [1]: 114 % of control

Structure (SMILES): [CH3][Pb]([CH3])([CH3])[Cl]
- T/C [16]: 117 % of control
- T/C (dose: 1.5 mg/kg/injection, schedule: Q01DX009 (ip), vehicle: saline): 103 % of control

Structure (SMILES): NC(CCC(=O)NCC(=O)O)C(=O)O (stereo not drawn)
- T/C [6]: 92 % of control
- T/C [10]: 91 % of control
- T/C [11]: 101 % of control
- T/C (dose: 400.0 mg/kg/injection, schedule: Q01DX009 (ip), vehicle: saline): 88 % of control

Structure (SMILES): Cc1ccn(C(N)=O)n1
- T/C [7]: 93 % of control
- T/C [8]: 109 % of control

Structure (SMILES): Cn1cnc2c1c(=O)[nH]c(=O)n2C
- T/C [7]: 109 % of control
- T/C [8]: 111 % of control
- T/C [9]: 109 % of control

Structure (SMILES): CCOc1ccccc1NC(=O)c1cccc(C(=O)Nc2ccccc2OCC)c1
- T/C [7]: 105 % of control
- T/C [8]: 94 % of control
- T/C [9]: 94 % of control

Structure (SMILES): O=C1CSC2=NCCN12
- T/C (dose: 50.0 mg/kg/injection, schedule: Q01DX009 (ip), vehicle: suspension in saline): 99 % of control
- T/C (dose: 100.0 mg/kg/injection, schedule: Q01DX009 (ip), vehicle: suspension in saline): 113 % of control
- T/C (dose: 200.0 mg/kg/injection, schedule: Q01DX009 (ip), vehicle: suspension in saline): 111 % of control

Structure (SMILES): O=C(NC(CSC(c1ccccc1)c1ccccc1)C(=O)O)OCc1ccccc1 (stereo not drawn)
- T/C [14]: 100 % of control
- T/C [15]: 100 % of control

Structure (SMILES): O=C1CC(c2ccc(OCN(CCCl)CCCl)cc2)CC(=O)C1CN(CCCl)CCCl (stereo not drawn)
- T/C (dose: 0.5 mg/kg/injection, schedule: Q01DX009 (ip), vehicle: Klucel (hydroxypropylcellulose) (HPC)): 97 % of control
- T/C (dose: 1.0 mg/kg/injection, schedule: Q01DX009 (ip), vehicle: Klucel (hydroxypropylcellulose) (HPC)): 100 % of control
- T/C (dose: 2.0 mg/kg/injection, schedule: Q01DX009 (ip), vehicle: Klucel (hydroxypropylcellulose) (HPC)): 100 % of control
- T/C (dose: 4.0 mg/kg/injection, schedule: Q01DX009 (ip), vehicle: Klucel (hydroxypropylcellulose) (HPC)): 99 % of control
- T/C (dose: 8.0 mg/kg/injection, schedule: Q01DX009 (ip), vehicle: Klucel (hydroxypropylcellulose) (HPC)): 104 % of control

Structure (SMILES): O=C(Oc1cccc(OC(=O)c2ccc(Cl)cc2)c1)c1ccc(Cl)cc1
- T/C [7]: 89 % of control
- T/C [8]: 89 % of control

Structure (SMILES): N=C(N)SCCCCCCCCCCSC(=N)N
- T/C (dose: 6.25 mg/kg/injection, schedule: Q01DX009 (ip), vehicle: saline with Tween-80): 95 % of control
- T/C (dose: 12.5 mg/kg/injection, schedule: Q01DX009 (ip), vehicle: saline with Tween-80): 88 % of control
- T/C [3]: 86 % of control and 88 % of control

— PubChem BioAssay AID192 (DTP/NCI, 2004)
